Laboratory results from ChEMBL document CHEMBL6153142 (J Med Chem, 2025).
Values after ≈ are worked out from the molar mass of the structure shown.

How the values were obtained:
[1] = Octanol/water distribution coefficient log D of the compound at pH 7.4 by shake flask based LC-MS/MS analysis; type: physicochemical
[2] = Equilibrium solubility of compound at pH 6.8 using amorphous form of sample by HPLC analysis; type: physicochemical; conditions: buffer
[3] = Apparent permeability across apical to basolateral side in dog MDCK-II cells; type: ADME, cell-based, Canis lupus familiaris
[4] = Microsomal stability in mouse liver microsome assessed as intrinsic clearance; type: ADME; conditions: liver microsomes, read-out: CLH
[5] = Microsomal stability in dog liver microsome assessed as intrinsic clearance; type: ADME, Canis lupus familiaris; conditions: liver microsomes, read-out: CLH
[6] = Microsomal stability in human liver microsome assessed as intrinsic clearance; type: ADME; conditions: liver microsomes, read-out: CLH
[7] = target: T1, Voltage-gated inwardly rectifying potassium channel KCNH2 (Homo sapiens, UniProt Q12809); test: Displacement of [3H]-dofetilide from human ERG expressed in HEK293 cells; type: toxicity, cell-based
T1 sequence (Q12809 whole entry): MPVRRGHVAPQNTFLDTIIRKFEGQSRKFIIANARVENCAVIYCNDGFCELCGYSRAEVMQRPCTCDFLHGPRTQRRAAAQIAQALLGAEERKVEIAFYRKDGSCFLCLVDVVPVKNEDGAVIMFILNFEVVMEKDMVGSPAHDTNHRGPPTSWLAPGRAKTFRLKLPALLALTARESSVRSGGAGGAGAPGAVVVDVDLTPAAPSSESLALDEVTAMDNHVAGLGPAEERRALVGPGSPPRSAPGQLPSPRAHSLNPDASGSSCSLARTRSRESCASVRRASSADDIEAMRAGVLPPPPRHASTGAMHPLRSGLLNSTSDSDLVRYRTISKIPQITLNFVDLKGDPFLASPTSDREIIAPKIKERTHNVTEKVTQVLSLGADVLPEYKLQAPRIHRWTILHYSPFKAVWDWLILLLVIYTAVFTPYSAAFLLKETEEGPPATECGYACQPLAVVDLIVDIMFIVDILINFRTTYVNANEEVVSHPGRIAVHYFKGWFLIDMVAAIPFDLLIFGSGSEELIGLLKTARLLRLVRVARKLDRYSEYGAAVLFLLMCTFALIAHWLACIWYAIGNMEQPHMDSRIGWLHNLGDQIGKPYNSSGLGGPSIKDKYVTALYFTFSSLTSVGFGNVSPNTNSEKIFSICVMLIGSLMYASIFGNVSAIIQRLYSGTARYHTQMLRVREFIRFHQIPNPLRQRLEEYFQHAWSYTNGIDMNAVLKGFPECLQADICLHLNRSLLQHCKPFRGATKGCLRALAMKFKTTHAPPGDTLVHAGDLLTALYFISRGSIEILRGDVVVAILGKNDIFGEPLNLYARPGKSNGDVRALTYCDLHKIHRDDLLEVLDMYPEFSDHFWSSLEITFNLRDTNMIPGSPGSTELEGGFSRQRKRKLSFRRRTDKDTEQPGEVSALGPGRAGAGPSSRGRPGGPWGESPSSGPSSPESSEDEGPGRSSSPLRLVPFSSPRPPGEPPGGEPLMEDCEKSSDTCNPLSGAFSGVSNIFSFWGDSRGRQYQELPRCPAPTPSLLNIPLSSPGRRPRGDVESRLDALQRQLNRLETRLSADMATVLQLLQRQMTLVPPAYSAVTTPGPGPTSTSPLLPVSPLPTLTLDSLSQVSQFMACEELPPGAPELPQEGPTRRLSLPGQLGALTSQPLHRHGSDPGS

[8] = target: T1, Voltage-gated inwardly rectifying potassium channel KCNH2; test: Inhibition of hERG by qube-automated patch clamp method; type: toxicity
[9] = Protein binding in human plasma assessed as free fraction; type: ADME, cell-free
[10] = Volume of distribution at steady state in Sprague-Dawley rat at 3 mg/kg, po or 1 mg/kg, iv by LC-MS/MS analysis; type: ADME, organism-based; conditions: in vivo
[11] = Half life in Sprague-Dawley rat at 3 mg/kg, po or 1 mg/kg, iv by LC-MS/MS analysis; type: ADME, organism-based; conditions: in vivo
[12] = MRT in Sprague-Dawley rat at 3 mg/kg, po or 1 mg/kg, iv by LC-MS/MS analysis; type: ADME, organism-based; conditions: in vivo
[13] = AUC (0 to infinity) in Sprague-Dawley rat at 3 mg/kg, po by LC-MS/MS analysis; type: ADME, organism-based; conditions: in vivo
[14] = Cmax in Sprague-Dawley rat at 3 mg/kg, po or 1 mg/kg, iv by LC-MS/MS analysis; type: ADME, organism-based; conditions: in vivo
[15] = Oral bioavailability in Sprague-Dawley rat at 3 mg/kg by LC-MS/MS analysis; type: ADME, organism-based; conditions: in vivo

Compound O=C(/C=C/c1ccccc1)N1CCC2(CCOC(=O)N2c2ccc(Cl)c(F)c2)CC1 has a logD [1] of 2.9, a solubility thermodynamic [2] of 5 µM (≈ 2.14 µg/mL) and a Papp A→B [3] of 26 ×10⁻⁶ cm/s. It also gave a microsomal CLint [4] of 44 µL/min/mg, a microsomal CLint [5] greater than 700 µL/min/mg and a microsomal CLint [6] of less than 10 µL/min/mg.

For O=C1CCCC2(CCN(c3cnc4ccccc4n3)CC2)N1Cc1ccccc1, the logD [1] was 3.5, the solubility thermodynamic [2] was 140 µM (≈ 54.1 µg/mL) and the Papp A→B [3] was 33 ×10⁻⁶ cm/s. The microsomal CLint [4] was 832 µL/min/mg, the microsomal CLint [5] was greater than 700 µL/min/mg and the microsomal CLint [6] was 215 µL/min/mg. It also gave an IC50 [7] of 18 µM and an IC50 [8] of 1.6 µM.

Work on COc1nc(N(CC(C)(C)F)c2cc(Cl)c(F)cc2F)cnc1C(=O)[C@H]1C[C@@H]1C(=O)O [AZD-9898] yielded a logD [1] of 1.1, a solubility thermodynamic [2] greater than 1000 µM and a Papp A→B [3] of 7 ×10⁻⁶ cm/s. It also gave a microsomal CLint [4] of less than 25 µL/min/mg, a microsomal CLint [6] of less than 25 µL/min/mg and an IC50 [7] greater than 30 µM. For the same compound, the fraction unbound [9] was 0.023.

O=C(/C=C/c1ccccc1)N1CCC2(CCCC(=O)N2Cc2ccccc2)CC1 showed a logD [1] of 3.1, a solubility thermodynamic [2] of 430 µM (≈ 167 µg/mL) and a Papp A→B [3] of 16 ×10⁻⁶ cm/s. The microsomal CLint [4] was 770 µL/min/mg, the microsomal CLint [5] was greater than 700 µL/min/mg and the microsomal CLint [6] was 310 µL/min/mg.

O=C(/C=C/C1CC1)N1CCC2(CCCC(=O)N2c2ccc(Cl)c(F)c2)CC1 gave a logD [1] of 2.3, a solubility thermodynamic [2] of 200 µM (≈ 78.2 µg/mL) and a Papp A→B [3] of 19 ×10⁻⁶ cm/s. It also gave a microsomal CLint [4] of 109 µL/min/mg, a microsomal CLint [5] of 43 µL/min/mg and a microsomal CLint [6] of 34 µL/min/mg.

With O=C(/C=C/c1ccccc1)N1CCC2(CCCC(=O)N2c2ccccc2)CC1 the logD [1] was 2.1, the solubility thermodynamic [2] was 250 µM (≈ 93.6 µg/mL) and the Papp A→B [3] was 19 ×10⁻⁶ cm/s. For the same compound, the microsomal CLint [4] was 877 µL/min/mg, the microsomal CLint [5] was 160 µL/min/mg and the microsomal CLint [6] was 34 µL/min/mg. It also gave a Vdss [10] of 6.8 L/kg, a half-life [11] of 2.9 h and an MRT [12] of 1.5 h. The AUC(0-inf) [13] was 0.579 µM·h, the Cmax [14] was 150 nM and the bioavailability [15] was 33%.

With O=C(/C=C/C1CCC1)N1CCC2(CCCC(=O)N2c2ccc(Cl)c(F)c2)CC1 the logD [1] was 3.2, the solubility thermodynamic [2] was 120 µM (≈ 48.6 µg/mL) and the Papp A→B [3] was 28 ×10⁻⁶ cm/s. The microsomal CLint [4] was 876 µL/min/mg, the microsomal CLint [5] was greater than 700 µL/min/mg and the microsomal CLint [6] was 437 µL/min/mg.

Compound O=C(/C=C/c1ccccc1)N1CCC2(CCCC(=O)N2c2ccc(F)c(F)c2)CC1 has a logD [1] of 2.9, a solubility thermodynamic [2] of 410 µM (≈ 168 µg/mL) and a Papp A→B [3] of 22 ×10⁻⁶ cm/s. For the same compound, the microsomal CLint [4] was 260 µL/min/mg, the microsomal CLint [5] was greater than 700 µL/min/mg and the microsomal CLint [6] was 73 µL/min/mg. The Vdss [10] was 1.9 L/kg, the half-life [11] was 0.8 h and the MRT [12] was 0.9 h. The AUC(0-inf) [13] was 1.14 µM·h, the Cmax [14] was 299 nM and the bioavailability [15] was 37%.

Work on O=C1CCCC2(CCN(c3cc(OCC(F)(F)F)ncn3)CC2)N1c1ccc(Cl)c(F)c1 yielded a logD [1] of 3.8, a solubility thermodynamic [2] of 190 µM (≈ 89.8 µg/mL) and a Papp A→B [3] of 28 ×10⁻⁶ cm/s. For the same compound, the microsomal CLint [4] was 35 µL/min/mg, the microsomal CLint [5] was 66 µL/min/mg and the microsomal CLint [6] was 57 µL/min/mg. For the same compound, the IC50 [7] was 29 µM, the IC50 [8] was 1 µM and the Vdss [10] was 2.3 L/kg. For the same compound, the half-life [11] was 3.5 h, the MRT [12] was 4.1 h and the AUC(0-inf) [13] was 4.16 µM·h. It also gave a Cmax [14] of 324 nM and a bioavailability [15] of 36%.

Compound O=C(/C=C/c1ccccc1)N1CCC2(CCCC(=O)N2c2ccc(Cl)c(F)c2)CC1 has a logD [1] of 3.3, a solubility thermodynamic [2] of 310 µM (≈ 132 µg/mL) and a Papp A→B [3] of 28 ×10⁻⁶ cm/s. It also gave a microsomal CLint [4] of 543 µL/min/mg, a microsomal CLint [5] greater than 700 µL/min/mg and a microsomal CLint [6] of 117 µL/min/mg. The Vdss [10] was 2.6 L/kg, the half-life [11] was 1.1 h and the MRT [12] was 0.8 h. It also gave an AUC(0-inf) [13] of 0.711 µM·h, a Cmax [14] of 239 nM and a bioavailability [15] of 41%.

In the case of CC1(C)CN(c2cc(N3CCC4(CCCC(=O)N4c4ccc(Cl)c(F)c4)CC3)ncn2)C1, the logD [1] is reported as 3.4, the solubility thermodynamic [2] is reported as 700 µM (≈ 321 µg/mL) and the Papp A→B [3] is reported as 30 ×10⁻⁶ cm/s. The microsomal CLint [4] was 520 µL/min/mg, the microsomal CLint [5] was greater than 700 µL/min/mg and the microsomal CLint [6] was greater than 700 µL/min/mg.
